Assay results: patent publication US20180214428A1, “3-(1H-INDOL-2-YL)-1H-PYRAZOLO[3,4-B]PYRIDINES AND THERAPEUTIC USES THEREOF” (Samumed, LLC, priority 2015, published 2018)

Legend:
[1] = test system: primary human fibroblasts derived from IPF patients (LL29 cells); test: Inhibition of the fibrotic process: αSMA staining in TGF-β1 treated LL29 fibroblasts; format: cell-based; conditions: Homo sapiens, Fibroblast, 96 h, TGF-β1 20 ng/mL, 4 days, % αSMA positive cells
Excerpt: Representative compounds were screened using primary human fibroblasts (derived from IPF patients) treated with TGF-β1 to determine their ability to inhibit the fibrotic process.
Primary human fibroblasts derived from IPF patients (LL29 cells) [^1Xiaoqiu Liu, et. al., “Fibrotic Lung Fibroblasts Show Blunted Inhibition by cAMP Due to Deficient cAMP Response Element-Binding Protein Phosphorylation”, Journal of Pharmacology and Experimental Therapeutics (2005), 315(2), 678-687; ^2Watts, K. L., et. al., “RhoA signaling modulates cyclin D1 expression in human lung fibroblasts; implications for idiopathic pulmonary fibrosis”, Respiratory Research (2006), 7(1), 88] were obtained from American Type Culture Collection (ATCC) and expanded in F12 medium supplemented with 15% Fetal Bovine Serum and Penicillin/Streptomycin.
Each compound was dissolved in DMSO as a 10 mM stock and used to prepare compound source plates. Serial dilution (1:2, 11-point dose-response curves from 10 μM to […]) and compound transfer was performed using the ECHO 550 (Labcyte, Sunnyvale, Calif.) into 384-well clear bottom assay plates (Greiner Bio-One) with appropriate DMSO backfill for a final DMSO concentration of 0.1%. LL29 cells are plated at 1,500 cells/well in 80 μL/well F12 medium supplemented with 1% Fetal Bovine Serum. One hour after addition of the cells, TGF-01 (Peprotech; 20 ng/mL) was added to the plates to induce fibrosis (ref. 1 and 2 above). Wells treated with TGF-β1 and containing DMSO were used as controls. Cells were incubated at 37° C. and 5% CO2 for 4 days. Following incubation for 4 days, SYTOX green nucleic acid stain (Life Technologies [Thermo Fisher Scientific]) was added to the wells at a final concentration of 1 μM and incubated at room temperature for 30 min. Cells were then fixed using 4% formaldehyde (Electron Microscopy Sciences), washed 3 times with PBS followed by blocking and permeabilization using 3% Bovine Serum Albumin (BSA; Sigma) and 0.3% Triton X-100 (Sigma) in PBS. Cells were then stained with antibody specific to α-smooth muscle actin (aSMA; Abcam) (ref. 1 and 2 above) in 3% Bovine Serum Albumin (BSA; Sigma) and 0.3% Triton X-100 (Sigma) in PBS, and incubated overnight at 4° C. Cells were then washed 3 times with PBS, followed by incubation with Alexa Flor-647 conjugated secondary antibody (Life Technologies [Thermo Fisher Scientific]) and DAPI at room temperature for 1 hour. Cells were then washed 3 times with PBS and plates were sealed for imaging. αSMA staining was imaged by excitation at 630 nm and emission at 665 nm and quantified using the Compartmental Analysis program on the CellInsight CX5 (Thermo Scientific). Dead or apoptotic cells were excluded from analysis based on positive SYTOX green staining. % of total cells positive for aSMA were counted in each well and normalized to the average of 11 wells treated with TGF-01 on the same plate using Dotmatics' Studies Software. The normalized averages (fold change over untreated) of 3 replicate wells for each compound concentration were used to create dose-responses curves and EC50 values were calculated using non-linear regression curve fit in the Dotmatics' Studies Software. For EC50 of >10 μM, the percent inhibition at 10 μM is provided.

[2] = test system: IL-6; test: IL-6 inhibition in LPS-stimulated THP-1 monocytes (HTRF); format: cell-based, human; conditions: Homo sapiens; THP-1 cells, 500 ng/mL LPS, 22 h, HTRF IL-6 readout; 10-point dose-response from 10 μM
Procedure: Human monocyte cell line (THP-1 cells; Catalog # TIB-202, ATCC, Manassas, Va.) were cultured in Roswell Park Memorial Institute (RPMI) 1640 Medium (Catalog #21870-100, Buffalo, N.Y.) with 1% L-glutamine, 1% HEPES, 1% Sodium Pyruvate, 2% Sodium Bicarbonate supplemented with 100 units/mL penicillin, 50 μg/mL streptomycin, 2-mercaptoethanol (0.05 mM) [basal medium] and 10% fetal bovine serum (Catalog #16140089, Life Technologies, Carlsbad, Calif.) at 37° C. and 5% CO2.
THP-1 cells were cultured in basal media with 1% FBS for 24 hours before the start of the assay. Each compound was dissolved in DMSO as a 10 mM stock and used to prepare compound source plates. Serial dilution (1:3, 10-point dose-response curves starting from 10 μM) and compound transfer was performed using the ECHO 550 (Labcyte, Sunnyvale, Calif.) into 384-well white low volume assay plates (Greiner Bio-One) with appropriate DMSO backfill for a final DMSO concentration of 0.1%. THP-1 cells were plated at 5000 cells/well in the 384-well plates and incubated at 37° C. for 2 h. 500 ng/mL of LPS was added after 2 hours and cells were incubated for another 22 hours at 37° C. Plates were spun in a centrifuge for 1 minute at […] and a mixture of anti-IL6 XL665, and anti-IL6 Cryptate diluted in reconstitution buffer (Cisbio Inc.) was added to each well. Following incubation for 3 hrs at room temperature, Homogeneous Time-Resolved Fluorescence (HTRF) was measured using the Envision (Perkin Elmer) at 665 nm and […]. The ratio of fluorescence at 665 nm to 620 nm was used as a readout for IL6 quantification. All samples were processed in duplicate. Readings were normalized to DMSO treated cells and normalized activities were utilized for EC50 calculations using the dose-response log (inhibitor) vs. response variable slope (four parameters) nonlinear regression feature available in GraphPad Prism 5.0 (or Dotmatics). For EC50 of >10 μM, the percent inhibition at 10 μM is provided.

[3] = test system: SW480 colon cancer cells; test: Cell viability assay (CellTiter-Blue) in SW480 colon cancer cells; format: cell-based, human; conditions: Homo sapiens, 96 h, four days, CellTiter-Blue
Procedure: Representative compounds were screened using the following assay procedure to assess the effect on cell viability as described below.
Each compound was dissolved in DMSO as a 10 mM stock and used to prepare compound source plates. Serial dilution (1:3, 8-point dose-response curves from 10 μM to 0.0045 μM) and compound transfer was performed using the ECHO 550 (Labcyte, Sunnyvale, Calif.) into 96-well clear bottom, black-walled plates (Corning-Costar).
Approximately 2×10^3 SW480 colon cancer cells were seeded into each well and allowed to incubate in the presence or absence of compound for four days at 37° C./5% CO2. Eight replicates of DMSO-treated cells served as controls and cells treated with compound were performed in duplicate.
After incubation, 20 μL of CellTiter-Blue (Promega) was added to each well allowed to incubate for approximately 3 hours. This reagent was a buffered solution which contains resazurin, metabolically active cells were able to reduce rezarurin (blue) into resorufin (pink) which was highly fluorescent. This measured fluorescence was used as a readout for cell viability.
After incubation, the plates were read at Ex 560 nm Em 590 nm (Cytation 3, BioTek). Dose-response curves were generated and EC50 concentration values were calculated using non-linear regression curve fit in the GraphPad Prism (San Diego, Calif.) or Dotmatics' Studies Software (Bishops Stortford, UK). For EC50 of >10 μM, the percent inhibition at 10 μM is provided.

[4] = test system: Wnt activity (Sp5-Luc reporter gene, SW480 colon carcinoma cells); test: Screening assay for Wnt activity: Sp5-Luc reporter gene assay in SW480 cells; format: cell-based, human; conditions: Homo sapiens, overnight incubation
Excerpt: The screening assay for Wnt activity is described as follows. Reporter cell lines can be generated by stably transducing cancer cell lines (e.g., colon cancer) or primary cells (e.g., IEC-6 intestinal cells) with a lentiviral construct that includes a Wnt-responsive promoter driving expression of the firefly luciferase gene.
SW480 colon carcinoma cells were transduced with a lentiviral vector expressing luciferase with a human Sp5 promoter consisting of a sequence of eight TCF/LEF binding sites. SW480 cells stably expressing the Sp5-Luc reporter gene and a hygromycin resistance gene were selected by treatment with 150 μg/mL of hygromycin for 7 days. These stably transduced SW480 cells were expanded in cell culture and used for all further screening activities. Each compound was dissolved in DMSO as a 10 mM stock and used to prepare compound source plates. Serial dilution (1:3, 10-point dose-response curves starting from 10 μM) and compound transfer was performed using the ECHO 550 (Labcyte, Sunnyvale, Calif.) into 384-well white solid bottom assay plates (Greiner Bio-One) with appropriate DMSO backfill for a final DMSO concentration of 0.1%. For Sp5-Luc reporter gene assays, the cells were plated at 4,000 cells/well in 384-well plates with medium containing 1% fetal bovine serum and incubated overnight at 37° C. and 5% CO2. Following incubation, 20 μl of BrightGlo luminescence reagent (Promega) was added to each well of the 384-well assay plates. The plates were placed on an orbital shaker for 2 min and then luminescence was quantified using the Envision (Perkin Elmer) plate reader. Readings were normalized to DMSO only treated cells, and normalized activities were utilized for EC50 calculations using the dose-response log (inhibitor) vs. response variable slope (four parameters) nonlinear regression feature available in GraphPad Prism 5.0 (or Dotmatics). For EC50 of >10 μM, the percent inhibition at 10 μM is provided.

Row | SMILES | EC50 [1] [nM] | EC50 [2] [nM] | EC50 [3] [nM] | EC50 [4] [nM]
1 | CN(C)Cc1cncc(-c2cnc3[nH]nc(-c4cc5c(-c6cccc(F)c6)cccc5[nH]4)c3c2)c1 [Compound 10, 1-(5-(3-(4-(3-Fluorophenyl)-1H-indol-2-yl)-1H-pyrazolo[3,4-b]pyridin-5-yl)pyridin-3-yl)-N,N-dimethylmethanamine] | 4390 | 1560 | 3440 | 1060
2 | CC(C)Nc1cncc(-c2cnc3[nH]nc(-c4cc5c(-c6ccccc6F)cccc5[nH]4)c3c2)c1 [Compound 57, 5-(3-(4-(2-Fluorophenyl)-1H-indol-2-yl)-1H-pyrazolo[3,4-b]pyridin-5-yl)-N-isopropylpyridin-3-amine] | 411 | 753 | 1820 | 371
3 | CCCCC(=O)Nc1cncc(-c2cnc3[nH]nc(-c4cc5c(-c6ccccc6F)cccc5[nH]4)c3c2)c1 [Compound 64, N-(5-(3-(4-(2-Fluorophenyl)-1H-indol-2-yl)-1H-pyrazolo[3,4-b]pyridin-5-yl)pyridin-3-yl)pentanamide] | 1770 | 3280 | 3880 | 796
4 | CCCC(=O)Nc1cncc(-c2cnc3[nH]nc(-c4cc5c(-c6ccncc6)cccc5[nH]4)c3c2)c1 [Compound 110, N-(5-(3-(4-(Pyridin-4-yl)-1H-indol-2-yl)-1H-pyrazolo[3,4-b]pyridin-5-yl)pyridin-3-yl)butyramide] | 2070 | 45 | 2260 | 365
5 | CCC(=O)Nc1cncc(-c2cnc3[nH]nc(-c4cc5c(N6CCCCC6)cccc5[nH]4)c3c2)c1 [Compound 145, N-(5-(3-(4-(Piperidin-1-yl)-1H-indol-2-yl)-1H-pyrazolo[3,4-b]pyridin-5-yl)pyridin-3-yl)propionamide] | 1410 | 2640 | 3670 | 290
6 | Nc1cncc(-c2cnc3[nH]nc(-c4cc5c(N6CCCCC6)cccc5[nH]4)c3c2)c1 [Compound 147, 5-(3-(4-(Piperidin-1-yl)-1H-indol-2-yl)-1H-pyrazolo[3,4-b]pyridin-5-yl) pyridin-3-amine] | 620 | 213 | 1050 | 154
7 | CN(C)Cc1cncc(-c2cnc3[nH]nc(-c4cc5c(N6CCCCC6)cccc5[nH]4)c3c2)c1 [Compound 157, N,N-Dimethyl-1-(5-(3-(4-(piperidin-1-yl)-1H-indol-2-yl)-1H-pyrazolo[3,4-b]pyridin-5-yl)pyridin-3-yl)methanamine] | 1230 | 2310 | 1860 | 1460
8 | O=C(Nc1cncc(-c2cnc3[nH]nc(-c4cc5c(N6CCCCC6)cccc5[nH]4)c3c2)c1)C1CC1 [Compound 164, N-(5-(3-(4-(piperidin-1-yl)-1H-indol-2-yl)-1H-pyrazolo[3,4-b]pyridin-5-yl)pyridin-3-yl)cyclopropanecarboxamide] | 4330 | 1190 | 9940 | 1080
9 | Cc1ccncc1-c1cnc2[nH]nc(-c3cc4c(N5CCN(C)CC5)cccc4[nH]3)c2c1 [Compound 205, 3-(4-(4-Methylpiperazin-1-yl)-1H-indol-2-yl)-5-(4-methylpyridin-3-yl)-1H-pyrazolo[3,4-b]pyridine] | 2560 | 477 | 3270 | 3420
10 | CC(C)Nc1cncc(-c2cnc3[nH]nc(-c4cc5c(N6CCN(C)CC6)cccc5[nH]4)c3c2)c1 [Compound 212, N-Isopropyl-5-(3-(4-(4-methylpiperazin-1-yl)-1H-indol-2-yl)-1H-pyrazolo[3,4-b]pyridin-5-yl)pyridin-3-amine] | 1480 | 173 | 1940 | 1300
11 | CC(C)(C)C(=O)Nc1cncc(-c2cnc3[nH]nc(-c4cc5ccccc5[nH]4)c3c2)c1 [Compound 235, N-(5-(3-(1H-Indol-2-yl)-1H-pyrazolo[3,4-b]pyridin-5-yl)pyridin-3-yl) pivalamide] | 282 | 350 | 3460 | 732
